The record followed here is patent US20260199323A1, “LIGAND COMPOUNDS FOR E3 UBIQUITIN LIGASE, PROTEIN DEGRADERS DEVELOPED ON BASIS OF LIGAND COMPOUNDS, AND USES THEREOF” (GLUETACS THERAPEUTICS (SHANGHAI) CO., LTD., priority 2021, published 2026).

pIC50: −log10 of the molar value. Read-outs that look alike come from different tables or passages of the source.

The subject of test [1] is CCRF-CEM. Kind of test: CCK-8 tumor cell proliferation, CCRF-CEM. The note with it: for pIC50: Homo sapiens, CCRF-CEM, read-out: IC50 inhibiting proliferation of tumor cells, CCRF-CEM; for IC50 for inhibiting the proliferation of tumor cells, CCRF-CEM: Table 8, designed based on ER inhibitors, 96 h. Format: cell-based, Human. The arrangement: IC50 for inhibiting the proliferation of tumor cells, CCRF-CEM: scale not given here. An outline of the steps:
(§1)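 IC50 derived from CCK-8 cell viability after compound treatment. Dilution series: 10 concentrations, 5-fold apart, from 10 μM. Compound added 24 h post-seeding; culture at 37 °C in 5% CO2.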

For test [2], the system named is MDA-MB-231. Kind of test: CCK-8 tumor cell proliferation, MDA-MB-231. Format: cell-based, Human. The settings on record: Homo sapiens; Table 18, FAK inhibitor based; MDA-MB-231; read-out: IC50 inhibiting proliferation of tumor cells, MDA-MB-231. An outline of the steps:
as §1

Test [3] relates to MM.1S. Kind of test: CCK-8 tumor cell proliferation, MM.1S. Format: cell-based. The note with it: Homo sapiens, MM1.S; Table 18, FAK inhibitor based; MM.1S; read-out: IC50 inhibiting proliferation of tumor cells, MM.1S. The procedure:
(§2) The tumor cells used herein were cultured in a cell culture medium listed in table 4 at 37° C. in an incubator with 5% CO2. Prior to experimentation, all cells used were correctly identified by STR profiling, and tested negative for mycoplasma through routine screenings.
(§3) IC50 values of the compounds of the present disclosure (including the compounds in Tables 1 and 3, and compounds of examples) were measured using the Meilun Cell Counting Kit-8 kit from Dalian Meilun Biotech Co., Ltd. Assay details are as follows: tumor cells were seeded in a 96-well plate at a density listed in Table 5. After 24 h, 100 μL of the inoculated cells were treated with 0.5 μL of the compounds of the present disclosure (including the compounds in Tables 1 and 3, and compounds of examples) at 10 different successively decreasing concentrations (starting at the highest concentration of 10 μM; 5-fold serial dilutions). After the cells were treated with the compounds of the present disclosure for a period of time, the cell viability detection reagent was added to the culture medium for cell viability assessment according to the instructions provided with the CCK-8 kit. […] The growth inhibition of the compounds of the present disclosure on cells was plotted by Prism Graphpad software, and the IC50 values of the compounds of the present disclosure were calculated therefrom.

Test [4] deals with Mino. Kind of test: CCK-8 tumor cell proliferation, Mino. The note with it: Homo sapiens; Table 18, FAK inhibitor based; Mino; read-out: IC50 inhibiting proliferation of tumor cells, Mino. Format: cell-based, Human. In outline:
as §1

The test system of test [5] is Vcap. Kind of test: CCK-8 tumor cell proliferation, Vcap. The settings on record: for pIC50: Homo sapiens, VCaP, Vcap, read-out: IC50 inhibiting proliferation of tumor cells, Vcap; for IC50 for inhibiting the proliferation of tumor cells, Vcap: Table 8, designed based on ER inhibitors, 96 h. Format: cell-based, Human. The procedure: as §2, §3
Test [6] has as its system SW620. Kind of test: CCK-8 tumor cell proliferation, SW620. Format: cell-based, Human. The settings on record: for pIC50: Homo sapiens, SW-620, Table 18, FAK inhibitor based, SW620, read-out: IC50 inhibiting proliferation of tumor cells, SW620; for IC50 for inhibiting the proliferation of tumor cells, SW620: Table 8, designed based on ER inhibitors, 96 h. In outline: as §1

Test [7] has as its system PC-9. Kind of test: CCK-8 tumor cell proliferation, PC-9. Format: cell-based, Human. The note with it: Homo sapiens; Table 18, FAK inhibitor based; PC-9; read-out: IC50 inhibiting proliferation of tumor cells, PC-9.
Test [8] has as its system NCI-H1975. The test can be described thus: CCK-8 tumor cell proliferation, NCI-H1975. Format: cell-based, Human. The note with it: Table 11, designed based on EGFR inhibitors; 96 h. How it is done: as §2, §3
Test [9] deals with CAL-62. The test can be described thus: CCK-8 tumor cell proliferation, CAL-62. Format: cell-based, Human. The arrangement: IC50 for inhibiting the proliferation of tumor cells, CAL-62: scale not given here. The settings on record: 72 h. In outline:
as §1

Test [10] deals with Jurkat. Kind of test: CCK-8 tumor cell proliferation, Jurkat. Format: cell-based, Human. The note with it: Homo sapiens, Table 22, NTRK inhibitor based, read-out: IC50 inhibiting proliferation of tumor cells, Jurkat. The procedure: as §2, §3
Where [11] appears, read: Table 11, designed based on EGFR inhibitors.
Setting [12] is: Table 8, designed based on ER inhibitors.

Consider `CNC(=O)c1ccccc1Nc1cc(Nc2ccc(N3CCN(Cc4cc5c(cc4F)C(=O)N(C4CCC(=O)NC4=O)C5)CC3)cc2OC)ncc1C(F)(F)F` (centres unmarked) [GT-03716, 2-((2-((4-(4-((2-(2,6-dioxopiperidin-3-yl)-6-fluoro-1-oxoisoindolin-5-yl)methyl)piperazin-1-yl)-2-methoxyphenyl)amino)-5-(trifluoromethyl)pyridin-4-yl)amino)-N-methylbenzamide], for which the pIC50 in [1] (Table 18, FAK inhibitor based) is over 7.30; in test [2], over 7.30; in test [3], over 7.30; in test [4], over 7.30; in test [5] (Table 18, FAK inhibitor based), over 7.30; in test [6] it was over 7.30. Further, the pIC50 in test [7] was 5.30 to 6.00.
For `COc1cc(N2CCC(N(C)Cc3cc4c(cc3F)C(=O)N(C3CCC(=O)NC3=O)C4)CC2)c(C)cc1Nc1ncc(Br)c(Nc2ccc3nccnc3c2P(C)(C)=O)n1` (centres unmarked) [GT-03926, 3-(5-(((1-(4-((5-bromo-4-((5-(dimethylphosphoryl)quinoxalin-6-yl)amino)pyrimidin-2-yl)amino)-5-methoxy-2-methylphenyl)piperidin-4-yl)(methyl)amino)methyl)-6-fluoro-1-oxoisoindolin-2-yl)piperidine-2,6-dione], in test [8], the “IC50 for inhibiting the proliferation of tumor cells, H1975” value was “A+”.
`COc1cc(N2CCC(N(C)Cc3ccc4c(c3F)CN(C3CCC(=O)NC3=O)C4=O)CC2)c(C)cc1Nc1ncc(Br)c(Nc2ccc3nccnc3c2P(C)(C)=O)n1` (centres unmarked) [GT-03925, 3-(5-(((1-(4-((5-bromo-4-((5-(dimethylphosphoryl)quinoxalin-6-yl)amino)pyrimidin-2-yl)amino)-5-methoxy-2-methylphenyl)piperidin-4-yl)(methyl)amino)methyl)-4-fluoro-1-oxoisoindolin-2-yl)piperidine-2,6-dione]: the “IC50 for inhibiting the proliferation of tumor cells, H1975” value in test [8] is recorded as “A+”. Also, the “IC50 for inhibiting the proliferation of tumor cells, CAL-62” value in test [9] (setting [11]) is on record as “A+”.
For the compound `CCC(=C(c1ccc(O)cc1)c1ccc(N2CCN(Cc3ccc4c(c3F)CN(C3CCC(=O)NC3=O)C4=O)CC2)cc1)c1ccc(O)cc1` (centres unmarked) [GT-04144, 3-(5-((4-(4-(1,2-bis(4-hydroxyphenyl)but-1-en-1-yl)phenyl)piperazin-1-yl)methyl)-4-fluoro-1-oxoisoindolin-2-yl)piperidine-2,6-dione], the “IC50 for inhibiting the proliferation of tumor cells, CCRF-CEM” value in [1] is on record as “A+”. Further, the “IC50 for inhibiting the proliferation of tumor cells, Vcap” value in test [5] is reported as “A+”. Also, the “IC50 for inhibiting the proliferation of tumor cells, SW620” value in test [6] is “A+”. Besides, the “IC50 for inhibiting the proliferation of tumor cells, CAL-62” value in [9] (setting [12]) is recorded as “A+”.
Turning to `O=C1CCC(N2Cc3cc(CN4CCN(c5cccc(-c6cnc7ccc(N8CCC[C@@H]8c8cccc(F)c8)nn67)n5)CC4)c(F)cc3C2=O)C(=O)N1` (stereo partly drawn) [GT-03866, 3-(6-fluoro-5-((4-(6-(6-((R)-2-(3-fluorophenyl)pyrrolidin-1-yl)imidazo[1,2-b]pyridazin-3-yl)pyridin-2-yl)piperazin-1-yl)methyl)-1-oxoisoindolin-2-yl)piperidine-2,6-dione], the pIC50 in [1] (Table 22, NTRK inhibitor based) is over 7.30; in [5] (Table 22, NTRK inhibitor based), 7.00 to 7.30; in [10] it was over 7.30.
Regarding `CN(c1nccnc1CNc1nc(Nc2ccc(N3CCC(N4CCN(Cc5ccc6c(c5)CN(C5CCC(=O)NC5=O)C6=O)CC4)CC3)cc2)ncc1C(F)(F)F)S(C)(=O)=O` (centres unmarked) [GT-03706, N-(3-(((2-((4-(4-(4-((2-(2,6-dioxopiperidin-3-yl)-1-oxoisoindolin-5-yl)methyl)piperazin-1-yl)piperidin-1-yl)phenyl)amino)-5-(trifluoromethyl)pyrimidin-4-yl)amino)methyl)pyrazin-2-yl)-N-methylmethanesulfonamide], the pIC50 was 6.30 to 7.00 in test [1] (Table 18, FAK inhibitor based); over 7.30 in test [2]; 6.30 to 7.00 in test [4]; 6.30 to 7.00 in [5] (Table 18, FAK inhibitor based); 6.00 to 6.30 in test [6]; 5.30 to 6.00 in [7].
With `COc1cc(N2CCC(N(C)Cc3cc(F)c4c(c3)CN(C3CCC(=O)NC3=O)C4=O)CC2)c(C)cc1Nc1ncc(Br)c(Nc2ccc3nccnc3c2P(C)(C)=O)n1` (centres unmarked) [GT-03927, 3-(5-(((1-(4-((5-bromo-4-((5-(dimethylphosphoryl)quinoxalin-6-yl)amino)pyrimidin-2-yl)amino)-5-methoxy-2-methylphenyl)piperidin-4-yl)(methyl)amino)methyl)-7-fluoro-1-oxoisoindolin-2-yl)piperidine-2,6-dione], the “IC50 for inhibiting the proliferation of tumor cells, H1975” value in test [8] is “A+”. Further, the “IC50 for inhibiting the proliferation of tumor cells, CAL-62” value in test [9] (setting [11]) is listed as “A+”.
Regarding `CCC(=C(c1ccc(O)cc1)c1ccc(N2CCN(Cc3cc(F)c4c(c3)CN(C3CCC(=O)NC3=O)C4=O)CC2)cc1)c1ccc(O)cc1` (centres unmarked) [GT-04146, 3-(5-((4-(4-(1,2-bis(4-hydroxyphenyl)but-1-en-1-yl)phenyl)piperazin-1-yl)methyl)-7-fluoro-1-oxoisoindolin-2-yl)piperidine-2,6-dione], the “IC50 for inhibiting the proliferation of tumor cells, CCRF-CEM” value in test [1] is on record as “A+”. Further, the “IC50 for inhibiting the proliferation of tumor cells, Vcap” value in [5] is recorded as “A+”. The “IC50 for inhibiting the proliferation of tumor cells, SW620” value in test [6] is “A+”. In addition, the “IC50 for inhibiting the proliferation of tumor cells, CAL-62” value in [9] (setting [12]) is “A+”.
`CN(Cc1ccc2c(c1F)CN(C1CCC(=O)NC1=O)C2=O)C1CCN(c2ccc(Nc3ncc4nc(Nc5ccccc5)n(C5CCCC5)c4n3)cc2)CC1` (centres unmarked) [GT-03858, 3-(5-(((1-(4-((9-cyclopentyl-8-(phenylamino)-9H-purin-2-yl)amino)phenyl)piperidin-4-yl)(methyl)amino)methyl)-4-fluoro-1-oxoisoindolin-2-yl)piperidine-2,6-dione]: the “IC50 for inhibiting the proliferation of tumor cells, H1975” value in test [8] is reported as “A+”.
For the compound `CN(Cc1ccc2c(c1)CN(C1CCC(=O)NC1=O)C2=O)C1CCN(c2ccc(Nc3ncc(C(F)(F)F)c(NCc4nccnc4N(C)S(C)(=O)=O)n3)cc2)CC1` (centres unmarked) [GT-03705, N-(3-(((2-((4-(4-(((2-(2,6-dioxopiperidin-3-yl)-1-oxoisoindolin-5-yl)methyl)(methyl)amino)piperidin-1-yl)phenyl)amino)-5-(trifluoromethyl)pyrimidin-4-yl)amino)methyl)pyrazin-2-yl)-N-methylmethanesulfonamide], the pIC50 in [1] (Table 18, FAK inhibitor based) is 7.00 to 7.30; in [2], over 7.30; in test [4] it was over 7.30; in test [5] (Table 18, FAK inhibitor based), 6.30 to 7.00; in [6], 6.30 to 7.00; in [7], 5.30 to 6.00.
`O=C1CCC(N2Cc3cc(CN4CCN(c5ccc(-c6ccc7c(c6)C(=O)N(C(C(=O)Nc6nccs6)c6cc(F)ccc6O)C7)cc5)CC4)ccc3C2=O)C(=O)N1` (centres unmarked) [GT-03503, 2-(6-(4-(4-((2-(2,6-dioxopiperidin-3-yl)-1-oxoisoindolin-5-yl)methyl)piperazin-1-yl)phenyl)-1-oxoisoindolin-2-yl)-2-(5-fluoro-2-hydroxyphenyl)-N-(thiazol-2-yl)acetamide]: the “IC50 for inhibiting the proliferation of tumor cells, H1975” value in test [8] is recorded as “A+”.
Consider `CCC(=C(c1ccc(O)cc1)c1ccc(N2CCN(Cc3cc4c(cc3F)C(=O)N(C3CCC(=O)NC3=O)C4)CC2)cc1)c1ccc(O)cc1` (centres unmarked) [GT-04145, 3-(5-((4-(4-(1,2-bis(4-hydroxyphenyl)but-1-en-1-yl)phenyl)piperazin-1-yl)methyl)-6-fluoro-1-oxoisoindolin-2-yl)piperidine-2,6-dione], for which, in test [1], the “IC50 for inhibiting the proliferation of tumor cells, CCRF-CEM” value is “A+”. Also, in test [5], the “IC50 for inhibiting the proliferation of tumor cells, Vcap” value is listed as “A+”. In addition, in test [6], the “IC50 for inhibiting the proliferation of tumor cells, SW620” value is “A+”. The “IC50 for inhibiting the proliferation of tumor cells, CAL-62” value in test [9] (setting [12]) is “A+”.
